Assay results from patent US11931466B2, “Process for the preparation of drug loaded microparticles” (FERRING B.V., priority 2015, dated 2024).
In brackets after ≈: the same amount, converted by molar mass. Counter-ions that a name gives are not always drawn.

Legend:
physchem = settings: organic solvent or mixture
[1] = 20° C.; cited from earlier work

Compound	solubility (physchem; 20 °C) [mg/mL]	further results
O=C1CCc2ccc(OCCCCN3CCN(c4cccc(Cl)c4Cl)CC3)cc2N1 [Aripiprazole]	400 (≈ 892 mM)	–
CNCC[C@H](Oc1cccc2ccccc12)c1cccs1 [Duloxetine hydrochloride]	400	–
O=C(CCCN1CCC(O)(c2ccc(Cl)cc2)CC1)c1ccc(F)cc1 [Haloperidol]	110 (≈ 293 mM)	–
COc1cc(C(C)=O)ccc1OCCCN1CCC(c2noc3cc(F)ccc23)CC1 [Iloperidone]	200 (≈ 469 mM)	–
CC12CC3CC(C)(C1)CC(N)(C3)C2 [Memantine hydrochloride]	130	–
O=C1CC[C@@]2(O)[C@H]3Cc4ccc(O)c5c4[C@@]2(CCN3CC2CC2)[C@H]1O5 [Naltrexone hydrochloride]	–	solubility (physchem; benzyl alcohol, 20 °C): 800 mg/mL
Cc1nc2n(c(=O)c1CCN1CCC(c3noc4cc(F)ccc34)CC1)CCCC2O (stereo not shown) [Paliperidone]	–	solubility (physchem; 60 °C): 233 mg/mL (≈ 546 mM)
Cc1nc2n(c(=O)c1CCN1CCC(c3noc4cc(F)ccc34)CC1)CCCC2 [Risperidone]	500 (≈ 1220 mM)	–
CCN(C)C(=O)Oc1cccc([C@H](C)N(C)C)c1 [Rivastigmine tartrate]	200	–
glycofurol	–	solubility in water [1]: soluble
